Measurements as given in patent publication US5519024A, “Quinolonecarboxylic acid derivatives and their use” (Takeda Chemical Industries, Ltd., priority 1993, dated 1996).
Where two headings read alike, the source gives them in different places.

Biological target: T1, GPIIb/IIIa (Homo sapiens, UniProt P05106+P08514)
T1 construct: Purification of GPIIb/IIIa from HEL cells; endogenous in cells; host or cells: HEL cells (HEL 92.1.7, ATCC TIB180); endogenous complex solubilized with Triton X-100 and purified in house
T1 sequence (P08514 32-887 limits assumed): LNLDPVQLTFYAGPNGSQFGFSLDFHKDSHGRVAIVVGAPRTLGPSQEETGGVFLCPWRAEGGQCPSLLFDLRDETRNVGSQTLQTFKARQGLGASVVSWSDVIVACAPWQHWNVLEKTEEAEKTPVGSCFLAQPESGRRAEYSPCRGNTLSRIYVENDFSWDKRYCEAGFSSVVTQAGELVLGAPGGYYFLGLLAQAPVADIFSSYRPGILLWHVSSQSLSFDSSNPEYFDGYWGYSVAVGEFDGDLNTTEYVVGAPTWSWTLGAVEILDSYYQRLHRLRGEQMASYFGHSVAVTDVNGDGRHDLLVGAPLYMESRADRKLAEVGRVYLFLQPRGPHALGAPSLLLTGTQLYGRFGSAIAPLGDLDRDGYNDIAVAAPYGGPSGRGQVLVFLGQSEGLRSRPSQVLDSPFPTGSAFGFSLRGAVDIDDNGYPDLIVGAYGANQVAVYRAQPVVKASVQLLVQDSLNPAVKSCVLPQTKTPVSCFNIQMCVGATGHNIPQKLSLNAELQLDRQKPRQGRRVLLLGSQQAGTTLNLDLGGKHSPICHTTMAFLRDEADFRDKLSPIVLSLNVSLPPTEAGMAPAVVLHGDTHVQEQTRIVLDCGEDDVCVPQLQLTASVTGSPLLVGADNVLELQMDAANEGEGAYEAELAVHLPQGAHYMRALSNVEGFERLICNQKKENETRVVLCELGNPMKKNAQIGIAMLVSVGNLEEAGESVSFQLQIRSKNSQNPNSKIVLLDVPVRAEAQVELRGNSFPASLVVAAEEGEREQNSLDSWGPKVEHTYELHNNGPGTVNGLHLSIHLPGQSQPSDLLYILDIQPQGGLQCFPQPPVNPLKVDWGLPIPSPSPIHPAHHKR
T1 sequence (P08514 891-1039 limits assumed): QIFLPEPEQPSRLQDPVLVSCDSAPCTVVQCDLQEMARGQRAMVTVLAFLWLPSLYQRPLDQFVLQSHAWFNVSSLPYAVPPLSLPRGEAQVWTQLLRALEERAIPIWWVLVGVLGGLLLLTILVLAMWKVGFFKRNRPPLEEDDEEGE
T1 sequence (P05106 27-788): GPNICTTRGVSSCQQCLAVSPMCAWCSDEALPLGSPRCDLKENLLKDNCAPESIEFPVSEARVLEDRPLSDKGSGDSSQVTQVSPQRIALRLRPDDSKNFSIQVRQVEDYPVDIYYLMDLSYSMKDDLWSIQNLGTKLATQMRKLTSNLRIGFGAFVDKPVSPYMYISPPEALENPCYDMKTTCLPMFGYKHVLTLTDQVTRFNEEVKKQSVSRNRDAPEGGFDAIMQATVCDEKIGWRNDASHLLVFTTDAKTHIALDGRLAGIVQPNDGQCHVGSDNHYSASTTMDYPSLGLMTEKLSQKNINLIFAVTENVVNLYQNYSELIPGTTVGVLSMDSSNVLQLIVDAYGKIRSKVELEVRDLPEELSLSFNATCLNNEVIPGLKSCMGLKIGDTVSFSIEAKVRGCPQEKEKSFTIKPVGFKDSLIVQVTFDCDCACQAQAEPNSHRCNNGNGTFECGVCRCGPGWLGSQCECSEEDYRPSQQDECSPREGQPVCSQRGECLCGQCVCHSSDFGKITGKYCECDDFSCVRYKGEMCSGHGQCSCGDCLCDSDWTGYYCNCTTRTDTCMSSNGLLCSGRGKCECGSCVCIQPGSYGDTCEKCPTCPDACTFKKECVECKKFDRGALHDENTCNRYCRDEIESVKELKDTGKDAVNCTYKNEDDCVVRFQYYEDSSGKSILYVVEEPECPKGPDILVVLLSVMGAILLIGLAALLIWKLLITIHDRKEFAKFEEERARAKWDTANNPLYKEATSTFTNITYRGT
Assay: Inhibitory activity against binding of GPIIb/IIIa and fibrinogen
Settings: for inhibition at 10 µM / inhibition at 1 µM: read-out: GPIIb/IIIa Fibrinogen Binding Inhibitory Activity
Protocol: Test Example 1: Inhibitory activity against binding of GPIIb/IIIa and fibrinogen
(1) Cultivation of human erythroleukemia-derived cell line (hereinafter referred to as HEL cells)
HEL cells (HEl92.1.7; ATCC No. TIB180) were purchased from ATCC (Rockville, Md., U.S.A.). The medium was RPMI medium (GIBCO Laboratories, Grand Island, N..Y, U.S.A.) containing 40 mM N-2-hydroxyethylpiperazine-N'-2-ethanesulfonic acid (hereinafter referred to as HEPES) (pH 7.0), 0.2% NaHCO3, 100 μg/ml kanamycin and 10% FCS. The cells were cultured in the presence of 5% CO2 at 37° C., with the medium replaced with a fresh medium to obtain a 4- to 5-fold dilution at intervals of 3 to 4 days.
(2) Purification of GPIIb/IIIa from HEL cells
GPIIb/IIIa was purified by a modification of the method of L. A. Fitzgerald et al. [J. Biol. Chem., 262, 3936 (1987)] as follows: All purification was conducted at room temperature, unless otherwise stated. At 7 days of cultivation, cells were collected from the HEL cell culture broth (cell suspension) by centrifugation (1,000 ×g, 10 minutes, 4° C.). After washing with 20 mM Tris-HCl (pH 7.5) containing 1 mM EDTA and 150 mM NaCl, the cells were suspended in a solubilizing buffer (20 mM Tris-HCl, 150 mM NaCl, 1% Triton X-100, 1 mM MgCl2, 1 mM CaCl2, 0.1 mM (p-amidinophenyl)methanesulfonyl fluoride (hereinafter referred to as APMSF), 10 nM leupeptin, 0.02% NaN3, pH 7.4), followed by gentle stirring at 4° C. for 30 minutes, to solubilize the GPIIb/IIIa. The suspension was centrifuged (100,000 ×g, 1 hour) at 4° C., and the cell debris removed, to yield a cell extract. The cell extract was passed through a Heparin-Sepharose CL-6B column (Pharmacia LKB) and a DEAE-Toyopearl 650M column (Tosoh), both previously equilibrated with a column buffer (20 mM Tris-HCl, 150 mM NaCl, 0.1% Triton X-100, 1 mM MgCl2, 1 mM CaCl2, 0.1 mM APMSF, 1 nM leupeptin, 0.05% NaN3, pH 7.4). The effluent was applied to a ConA-Sepharose column (Pharmacia LKB), previously equilibrated with the same column buffer as above, to adsorb the GPIIb/IIIa, followed by elution with the same column buffer but containing 0.5M methyl α-D-mannopyranoside. The eluted fraction was concentrated at 4° C. using an ultrafiltration apparatus (Amicon Corporation the fraction's molecular weight of 10,000), after which it was subjected to gel filtration through a Sephacryl S-300 column (Pharmacia LKB), previously equilibrated with the same column buffer, to yield a purified standard sample.
(3) Biotinization of human fibrinogen
Conducted by the method of I. F. Charo [I. F. Charo et al., J. Biol. Chem., 266, 1415 (1991)].
Human fibrinogen (Kabi Vitrum AB) was dissolved in PBS to 5 mg/ml and then dialyzed at 4° C. against 0.1M carbonate buffer (pH 8.2) containing 0.1M NaCl. After dialysis, insoluble substances were removed by centrifugation (100,000 ×g, 30 minutes), and the dialyzate was diluted to 1 mg/ml with the same buffer. To this dilution, sulfo-N-hydroxysuccinimidebiotin (Pierce Chemical Co.) was added to a final concentration of 0.2 mg/ml, followed by gentle mixing at room temperature for 30 minutes, to biotinize the fibrinogen. After completion of the reaction, the mixture was dialyzed against 0.05M Tris-HCl buffer (pH 7.4) containing 0.1M NaCl and 0.05% NaN3.
(4) Determination of inhibitory activity against fibrinogen binding
Conducted by a modification of the method of I. F. Charo [I. F. Charo et al., J. Biol. Chem., 266, 1415 (1991)] as follows: The purified GPIIb/IIIa was diluted to 1 μg/ml with buffer A (20 mM Tris-HCl, 150 mM NaCl, 1 mM CaCl2, 0.02% NaN3, pH 7.4). A 100 μl aliquot of this dilution was dispensed to a 96-well microplate (Maxisorp, produced by Nunc), and the plate kept standing at 4° C., to adsorb the GPIIb/IIIa to the microplate. Next, 150 μl of buffer B (35 mg/ml BSA, 50 mM Tris-HCl, 100 mM NaCl, 2 mM CaCl2, 0.02% NaN3, pH 7.4) was added, followed by 2 hours of blocking at 30° C. […]

inhibition at 10 µM (Table 2, 10^-5 M) [%] | inhibition at 1 µM (Table 2, 10^-6 M) [%] | Molecule | also measured
100 | 100 | O=C(O)c1cn(Cc2cscn2)c2c(F)c(N3CCN(c4ccncc4)CC3)c(F)cc2c1=O [Compound 73, 6,8-Difluoro-7-[4-(4-pyridyl)piperazine-1-yl]-1-(4-thiazolylmethyl)-1,4-dihydro-4-oxoquinoline-3-carboxylic acid] | –
58.5 | 26.1 | O=C(O)c1cn(Cc2ccc(Cl)cc2)c2c(F)c(N3CCNCC3)c(F)cc2c1=O [Compound 74, 1-(4-Chlorobenzyl)-6,8-difluoro-7-(1-piperazinyl)-1,4-dihydro-4-oxoquinoline-3-carboxylic acid] | –
100 | 100 | O=C(O)c1cn(Cc2ccncc2)c2c(F)c(N3CCNCC3)c(F)cc2c1=O [Compound 75, 6,8-Difluoro-7-(1-piperazinyl)-1-(4-pyridylmethyl)-1,4-dihydro-4-oxoquinoline-3-carboxylic acid] | –
100 | 83.1 | COc1ccccc1Cn1cc(C(=O)O)c(=O)c2cc(F)c(N3CCNCC3)c(F)c21 [Compound 76, 6,8-Difluoro-1-(2-methoxybenzyl)-7-(1-piperazinyl)-1,4-dihydro-4-oxoquinoline-3-carboxylic acid] | –
94.5 | 100 | COc1ccc(Cn2cc(C(=O)O)c(=O)c3ccc(N4CCC(C5CCNCC5)CC4)cc32)cc1 [Compound 77, 1-(4-Methoxybenzyl)-7-[4-(4-piperidinyl)piperidin-1-yl]-1,4-dihydro-4-oxoquinoline-3-carboxylic acid] | –
98.1 | 100 | O=C(O)c1cn(Cc2ccc(F)cc2)c2c(F)c(N3CCC(C4CCNCC4)CC3)c(F)cc2c1=O [Compound 78, 6,8-Difluoro-1-(4-fluorobenzyl)-7-[4-(4-piperidinyl)piperidin-1-yl]-1,4-dihydro-4-oxoquinoline-3-carboxylic acid] | –
100 | 100 | O=C(O)c1cn(Cc2ccc(C(F)(F)F)cc2)c2c(F)c(N3CCC(C4CCNCC4)CC3)c(F)cc2c1=O [Compound 79, 6,8-Difluoro-7-[4-(4-piperidinyl)piperidin-1-yl]-1-(4-trifiuoromethylbenzyl)-1,4-dihydro-4-oxoquinoline-3-carboxylic acid] | –
100 | 100 | COc1cccc(Cn2cc(C(=O)O)c(=O)c3cc(F)c(N4CCC(C5CCNCC5)CC4)c(F)c32)c1 [Compound 80, 6,8-Difluoro-1-(3-methoxybenzyl)-7-[4-(4-piperidinyl)piperidin-1-yl]-1,4-dihydro-4-oxoquinoline-3-carboxylic acid] | –
100 | 100 | COc1ccc(Cn2cc(C(=O)O)c(=O)c3ccc(N4CCNCC4)cc32)cc1 [Compound 81, 1-(4-Methoxybenzyl)-7-(4-piperazin-1-yl)-1,4-dihydro-4-oxoquinoline-3-carboxylic acid] | –
– | – | O=C(O)c1cn(C2CC2)c2cc(N3CCNCC3)c(F)cc2c1=O [Cyprofloxacin, reference compound] | inhibition at 1 µM: 47.6%; inhibition at 10 µM: 85.5%
– | – | CCn1cc(C(=O)O)c(=O)c2cc(F)c(N3CCNCC3)nc21 [Enoxacin, reference compound] | inhibition at 10 µM (Table 1, 1 × 10^-5 M): 62%; inhibition at 1 µM (Table 1, 1 × 10^-6 M): 24.3%
– | – | CCn1cc(C(=O)O)c(=O)c2cc(F)c(N3CCNCC3)cc21 [Norfloxacin, reference compound] | inhibition at 10 µM (Table 1, 1 × 10^-5 M): 77.4%; inhibition at 1 µM (Table 1, 1 × 10^-6 M): 38.7%
– | – | CC1COc2c(N3CCN(C)CC3)c(F)cc3c(=O)c(C(=O)O)cn1c23 (stereo not drawn) [Ofloxacin, reference compound] | inhibition at 10 µM (Table 1, 1 × 10^-5 M): 42.4%; inhibition at 1 µM (Table 1, 1 × 10^-6 M): 4%
– | – | NC1CCN(c2nc3c(cc2F)c(=O)c(C(=O)O)cn3-c2ccc(F)cc2F)C1 (stereo not drawn) [Tosufloxacin, reference compound] | inhibition at 10 µM (Table 1, 1 × 10^-5 M): 37.6%; inhibition at 1 µM (Table 1, 1 × 10^-6 M): 30.7%
– | – | Romechloxaxin [reference compound] | GPIIb/IIIa Fibrinogen Binding Inhibitory Activity (Table 1, 1 × 10^-5 M): 59.6%; GPIIb/IIIa Fibrinogen Binding Inhibitory Activity (Table 1, 1 × 10^-6 M): 22.8%
